These results are taken from patent publication US12678446B2 (PFIZER INC., priority 2020, dated 2026).

SMILES strings stand for the structures. Where only a bound is given, the exact number is not on record here.

The test system of data set [1] is RSV (RSV A2 ECACC, 0709161v). The experiment in a line: RSV plaque reduction assay. The class given is cell-based, respiratory syncytial virus. The following applies: human respiratory syncytial virus, HepG2, read-out: RSV A2 Plaque EC50, RSV A2 in Hep-G2 cells; mean of at least two experiments unless noted (n = 1). Put shortly: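 Hep-G2 monolayers infected with 100 PFU/well RSV A2 premixed with eight serial compound dilutions (2 h, 37° C.), then kept 2 days under CMC overlay with compound in DMEM/2% FBS. Plaques immunostained (HRP/TrueBlue) and counted; % infection versus virus control gives EC50, mean of at least two experiments, rounded.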
Background: Plaque reduction counts the foci of infection that form in a cell layer.

Data set [2] can be described thus: cell toxicity CC50. The class given is cell-based. Particulars: human; Hep-G2 cells; mean of at least two experiments; read-out: Cell Cytotoxicity CC50.

As usually defined, the EC50 is the concentration needed to bring the measured effect to its halfway point. By CC50 is commonly meant the concentration at which the toxic effect on the cells reaches its halfway point. Consider `CCN(Cc1ccccc1)CC1COc2c(C(=O)N[C@H]3N=C(c4ccccc4)c4cccc(F)c4NC3=O)c(-c3ccccc3F)nn2C1` (stereo partly drawn) [Example 174, 6-[[Benzyl(ethyl)amino]methyl]-N-[(3S)-9-fluoro-2-oxo-5-phenyl-1,3-dihydro-1,4-benzodiazepin-3-yl]-2-(2-fluorophenyl)-6,7-dihydro-5H-pyrazolo[5,1-b][1,3]oxazine-3-carboxamide], for which the half-maximal effective concentration (EC50) in data set [1] amounted to 406 nM. The half-maximal cytotoxic concentration (CC50) in data set [2] is above 25000 nM.
Consider `COC1COc2c(C(=O)N[C@H]3N=C(c4ccccc4)c4cccc(F)c4NC3=O)c(-c3ccccc3F)nn2C1` (stereo partly drawn) [Example 175, 2-(2-Fluorophenyl)-6-methoxy-N-[(3S)-9-fluoro-2-oxo-5-phenyl-1,3-dihydro-1,4-benzodiazepin-3-yl]-6,7-dihydro-5H-pyrazolo[5,1-b][1,3]oxazine-3-carboxamide], for which, in data set [1], the 50% effective concentration (EC50) turned out to be 61 nM. For the same compound, the 50% cytotoxic concentration (CC50) in data set [2] is above 25000 nM.
On to `CCc1ccc(-c2nn3c(c2C(=O)N[C@H]2N=C(c4ccccc4)c4ccccc4NC2=O)OCC2(CCC2)C3)cn1` [Example 176, 2-(6-Ethylpyridin-3-yl)-N-[(3S)-2-oxo-5-phenyl-1,3-dihydro-1,4-benzodiazepin-3-yl]spiro[5,7-dihydropyrazolo[5,1-b][1,3]oxazine-6,1′-cyclobutane]-3-carboxamide], for which the EC50 in data set [1] came to 63 nM. Also, the CC50 in data set [2] was above 25000 nM.
As to `CCc1ccc(-c2nn3c(c2C(=O)N[C@H]2N=C(c4ccccc4)c4cccc(F)c4NC2=O)OCC2(CCC2)C3)cn1` [Example 177, 2-(6-Ethylpyridin-3-yl)-N-[(3S)-9-fluoro-2-oxo-5-phenyl-1,3-dihydro-1,4-benzodiazepin-3-yl]spiro[5,7-dihydropyrazolo[5,1-b][1,3]oxazine-6,1′-cyclobutane]-3-carboxamide], the half-maximal effective concentration (EC50) in data set [1] was found to be 125 nM. For the same compound, the 50% cytotoxic concentration (CC50) in data set [2] is above 25000 nM.
For the compound `CC(C)Nc1ccc(-c2nn3c(c2C(=O)N[C@H]2N=C(c4ccccc4)c4ccccc4NC2=O)OCC2(CC2)C3)cn1` [Example 178, 2-[6-(Propan-2-ylamino)pyridin-3-yl]-N-[(3S)-2-oxo-5-phenyl-1,3-dihydro-1,4-benzodiazepin-3-yl]spiro[5,7-dihydropyrazolo[5,1-b][1,3]oxazine-6,1′-cyclopropane]-3-carboxamide], in data set [1], the EC50 turned out to be 75 nM. For the same compound, in data set [2], the CC50 is above 25000 nM.
Turning to `CC(C)Nc1ccc(-c2nn3c(c2C(=O)N[C@H]2N=C(c4ccccc4)c4cccc(F)c4NC2=O)OCC2(CC2)C3)cn1` [Example 179, 2-[6-(Propan-2-ylamino)pyridin-3-yl]-N-[(3S)-9-fluoro-2-oxo-5-phenyl-1,3-dihydro-1,4-benzodiazepin-3-yl]spiro[5,7-dihydropyrazolo[5,1-b][1,3]oxazine-6,1′-cyclopropane]-3-carboxamide], the concentration giving a half-maximal response (EC50) in data set [1] turned out to be 34 nM. Further, the half-maximal cytotoxic concentration (CC50) in data set [2] is above 25000 nM.
Consider `CCc1ccc(-c2nn3c(c2C(=O)N[C@H]2N=C(c4ccccc4)c4ccccc4NC2=O)OCC2(CC2)C3)cn1` [Example 180, 2-(6-Ethylpyridin-3-yl)-N-[(3S)-2-oxo-5-phenyl-1,3-dihydro-1,4-benzodiazepin-3-yl]spiro[5,7-dihydropyrazolo[5,1-b][1,3]oxazine-6,1′-cyclopropane]-3-carboxamide], for which the 50% effective concentration (EC50) in data set [1] is 75 nM. For the same compound, the CC50 in data set [2] was above 25000 nM.
`CCc1ccc(-c2nn3c(c2C(=O)N[C@H]2N=C(c4ccccc4)c4cccc(F)c4NC2=O)OCC2(CC2)C3)cn1` [Example 181, 2-(6-Ethylpyridin-3-yl)-N-[(3S)-9-fluoro-2-oxo-5-phenyl-1,3-dihydro-1,4-benzodiazepin-3-yl]spiro[5,7-dihydropyrazolo[5,1-b][1,3]oxazine-6,1′-cyclopropane]-3-carboxamide]: the EC50 in data set [1] is 42 nM. Moreover, in data set [2], the CC50 is above 25000 nM.
As for `CC(C)NCc1ccc(-c2nn3c(c2C(=O)N[C@H]2N=C(c4ccccc4)c4cccc(F)c4NC2=O)O[C@H](C)CC3)c(F)c1` [Example 183, (5R)-N-[(3S)-9-fluoro-2-oxo-5-phenyl-1,3-dihydro-1,4-benzodiazepin-3-yl]-2-[2-fluoro-4-[(propan-2-ylamino)methyl]phenyl]-5-methyl-6,7-dihydro-5H-pyrazolo[5,1-b][1,3]oxazine-3-carboxamide], the EC50 in data set [1] came out at 294 nM. Also, in data set [2], the CC50 was above 25000 nM.
The matching figures for `CS(=O)(=O)CC1COc2c(C(=O)N[C@H]3N=C(c4ccccc4)c4cccc(F)c4NC3=O)c(-c3ccccc3F)nn2C1` (stereo partly drawn) [Example 184, N-[(3S)-9-fluoro-2-oxo-5-phenyl-1,3-dihydro-1,4-benzodiazepin-3-yl]-2-(2-fluorophenyl)-6-(methylsulfonylmethyl)-6,7-dihydro-5H-pyrazolo[5,1-b][1,3]oxazine-3-carboxamide]: 300 nM and above 25000 nM.
In the case of `O=C(N[C@H]1N=C(c2ccccc2)c2cccc(F)c2NC1=O)c1c(-c2ccccc2F)nn2c1OCC1(CCC1)C2` [Example 185, 2-(2-Fluorophenyl)-N-[(3S)-9-fluoro-2-oxo-5-phenyl-1,3-dihydro-1,4-benzodiazepin-3-yl]spiro[5,7-dihydropyrazolo[5,1-b][1,3]oxazine-6,1′-cyclobutane]-3-carboxamide], the EC50 in data set [1] amounted to 32 nM. For the same compound, the CC50 in data set [2] is above 25000 nM.
With `O=C(N[C@H]1N=C(c2ccccc2)c2cccc(F)c2NC1=O)c1c(-c2ccccc2F)nn2c1OCC(CN1CCC(F)(F)C1)C2` (stereo partly drawn) [Example 186, 6-[(3,3-Difluoropyrrolidin-1-yl)methyl]-N-[(3S)-9-fluoro-2-oxo-5-phenyl-1,3-dihydro-1,4-benzodiazepin-3-yl]-2-(2-fluorophenyl)-6,7-dihydro-5H-pyrazolo [5,1-b][1,3]oxazine-3-carboxamide], the EC50 in data set [1] amounted to 59 nM. For the same compound, the CC50 in data set [2] was above 25000 nM.
As for `O=C(N[C@H]1N=C(c2ccccc2)c2cccc(F)c2NC1=O)c1c(-c2ccccc2F)nn2c1OC(CN1CCCC1)CC2` (stereo partly drawn) [Example 187, N-[(3S)-9-fluoro-2-oxo-5-phenyl-1,3-dihydro-1,4-benzodiazepin-3-yl]-2-(2-fluorophenyl)-5-(pyrrolidin-1-ylmethyl)-6,7-dihydro-5H-pyrazolo[5,1-b][1,3]oxazine-3-carboxamide], the EC50 in data set [1] was 249 nM. Further, the CC50 in data set [2] was above 8840 nM.
With `CCNCC1COc2c(C(=O)N[C@H]3N=C(c4ccccc4)c4cccc(F)c4NC3=O)c(-c3ccccc3F)nn2C1` (stereo partly drawn) [Example 192, 6-(Ethylaminomethyl)-N-[(3S)-9-fluoro-2-oxo-5-phenyl-1,3-dihydro-1,4-benzodiazepin-3-yl]-2-(2-fluorophenyl)-6,7-dihydro-5H-pyrazolo[5,1-b][1,3]oxazine-3-carboxamide], the concentration giving a half-maximal response (EC50) in data set [1] worked out at 243 nM. Also, the half-maximal cytotoxic concentration (CC50) in data set [2] was above 24400 nM.
`CSc1ccc(-c2nn3c(c2C(=O)N[C@H]2N=C(c4ccccc4)c4cccc(F)c4NC2=O)OCCC3)c(F)c1` [Example 193, 2-(2-Fluoro-4-methylsulfanylphenyl)-N-[(3S)-9-fluoro-2-oxo-5-phenyl-1,3-dihydro-1,4-benzodiazepin-3-yl]-6,7-dihydro-5H-pyrazolo[5,1-b][1,3]oxazine-3-carboxamide]: the EC50 in data set [1] came to 19 nM. Moreover, the cytotoxic concentration (CC50) in data set [2] was above 25000 nM.
With `C[S+]([O-])c1ccc(-c2nn3c(c2C(=O)N[C@H]2N=C(c4ccccc4)c4cccc(F)c4NC2=O)OCCC3)c(F)c1` (stereo partly drawn) [Example 194, 2-(2-Fluoro-4-methylsulfinylphenyl)-N-[(3S)-9-fluoro-2-oxo-5-phenyl-1,3-dihydro-1,4-benzodiazepin-3-yl]-6,7-dihydro-5H-pyrazolo[5,1-b][1,3]oxazine-3-carboxamide], the 50% effective concentration (EC50) in data set [1] amounted to 43 nM. Further, the CC50 in data set [2] was above 25000 nM.
In the case of `O=C(N[C@H]1N=C(c2ccccc2)c2cccc(F)c2NC1=O)c1c(Br)nn2c1OCCC2` [Example 195, 2-Bromo-N-[(3S)-9-fluoro-2-oxo-5-phenyl-1,3-dihydro-1,4-benzodiazepin-3-yl]-6,7-dihydro-5H-pyrazolo[5,1-b][1,3]oxazine-3-carboxamide], in data set [1], the half-maximal effective concentration (EC50) was determined as 355 nM. Also, the CC50 in data set [2] was above 25000 nM.
Consider `CCS(=O)(=O)c1ccc(-c2nn3c(c2C(=O)N[C@H]2N=C(c4ccccc4)c4cccc(F)c4NC2=O)O[C@H](C)CC3)c(F)c1` [Example 197, (5R)-2-(4-Ethylsulfonyl-2-fluorophenyl)-N-[(3S)-9-fluoro-2-oxo-5-phenyl-1,3-dihydro-1,4-benzodiazepin-3-yl]-5-methyl-6,7-dihydro-5H-pyrazolo[5,1-b][1,3]oxazine-3-carboxamide], for which the half-maximal effective concentration (EC50) in data set [1] turned out to be 97 nM. Also, the half-maximal cytotoxic concentration (CC50) in data set [2] was above 25000 nM.
On to `C[C@@H]1CCn2nc(-c3cc(S(C)(=O)=O)ccc3F)c(C(=O)N[C@H]3N=C(c4ccccc4)c4cccc(F)c4NC3=O)c2O1` [Example 198, (5R)-2-(2-Fluoro-5-methylsulfonylphenyl)-N-[(3S)-9-fluoro-2-oxo-5-phenyl-1,3-dihydro-1,4-benzodiazepin-3-yl]-5-methyl-6,7-dihydro-5H-pyrazolo[5,1-b][1,3]oxazine-3-carboxamide], for which, in data set [1], the EC50 amounted to 35 nM. Further, in data set [2], the cytotoxic concentration (CC50) is above 25000 nM.
Turning to `C[C@@H]1CCn2nc(-c3ccc(S(N)(=O)=O)cc3F)c(C(=O)N[C@H]3N=C(c4ccccc4)c4cccc(F)c4NC3=O)c2O1` [Example 199, (5R)-N-[(3S)-9-Fluoro-2-oxo-5-phenyl-1,3-dihydro-1,4-benzodiazepin-3-yl]-2-(2-fluoro-4-sulfamoylphenyl)-5-methyl-6,7-dihydro-5H-pyrazolo[5,1-b][1,3]oxazine-3-carboxamide], the EC50 in data set [1] is 64 nM. For the same compound, the CC50 in data set [2] was above 25000 nM.
For the compound `C[C@@H]1CCn2nc(-c3ccc(S(=O)(=O)N(C)C)cc3F)c(C(=O)N[C@H]3N=C(c4ccccc4)c4cccc(F)c4NC3=O)c2O1` [Example 200, (5R)-2-[4-(Dimethylsulfamoyl)-2-fluorophenyl]-N-[(3S)-9-fluoro-2-oxo-5-phenyl-1,3-dihydro-1,4-benzodiazepin-3-yl]-5-methyl-6,7-dihydro-5H-pyrazolo[5,1-b][1,3]oxazine-3-carboxamide], the concentration for a half-maximal effect (EC50) in data set [1] turned out to be 1 nM. Besides, the CC50 in data set [2] is above 25000 nM.
